# Experimental data taken from patent US8455440B2, “Combination anticoagulant therapy with a compound that acts as a factor Xa inhibitor” (Millennium Pharmaceuticals, Inc., priority 2007, dated 2013).
# Where “and” joins values, the source holds several entries; their conditions need not be identical. Identical values can stand only once. Marks after values point to notes of the source that are not given here.
# Tests used:
# Interleukin 8 = experiment: Ex vivo cytokine release in human whole blood: interleukin 8; type: cell-based
# human whole blood = experiment: Real time perfusion chamber: whole blood perfused over collagen and tissue factor coated surface; type: cell-based; details: shear rate 300 s^−1, five donors
# Experimental: After the perfusion, the thrombotic activity was quantified by measurement of labeled fibrin produced as a result of fibrinogen cleavage during the activation of platelets and the blood coagulation system. For this series of experiments in five healthy human volunteers, blood was obtained by venipuncture and treated with 2.4 μM eptifibatide. The dose of eptifibatide corresponds to the plasma concentration attained by therapeutic concentrations of the GPIIb/IIIa inhibitor.
# Interleukin 6 = experiment: Ex vivo cytokine release in human whole blood: interleukin 6; type: cell-based; details: for fold change of Interleukin 6 release: combination with Aspirin (0 nM = 1)
# Experimental: An ex vivo assay system of human cytokine release was used to test whether inhibition of factor Xa should augment the effect of reduction of inflammation elicited by standard anti-inflammatory drugs, such as aspirin.
# Following addition of Compound A (50 to 500 nM) to the blood samples, control and treated samples were activated by addition of collagen (Chronolog, 4 μg/mL) and gently rotated at 37° C. for 45 min. At the end of the activation period, blood samples were centrifuged at 13,000 rpm (15,000 g) for 5 min in an Eppendorf 5415G centrifuge. Plasma was removed, treated with protease inhibitor cocktail (Roche) and stored frozen at −80° C. Cytokines released from the blood cells were quantitated in a Multiplexed Biomarker Immunoassay for Luminex Instrumentation (Millipore USA). […] For example, in the plasma samples from six donors, the mean amount of interleukin 4 was 28.4 pg/mL in the untreated control and 26.8 to 29.4 pg/mL in the Compound A treated samples. […] Thus in this ex vivo system Compound A was capable of providing additional beneficial effect over a widely used anti-inflammatory agent.
# Rhesus Monkeys = experiment: Template bleed times in rhesus monkeys; type: in vivo, rhesus monkey; details: for Template Bleed Times / Template Bleed Times, Mean of all times / Template Bleed Times, Mean per animal / Template Bleed Times, Mean for time points 1-24 hr (post-Compound A dosing): in min (unit assumed); for Template Bleed Times, Mean of animals: mean of two animals; for Template Bleed Times, Mean of all times: all times (0-24 hr)
# Excerpt: Injectable heparins are often dose limited by their bleeding consequences which result in a narrow therapeutic window for treatment effects.
# factor Xa = target: T1, factor Xa (Bos taurus, UniProt P00743); experiment: Anti-factor Xa unit assay; type: biochemical, human; details: total knee replacement patients, 15 mg or 40 mg oral twice a day
# T1 construct: purchased Diapharma COATEST LMW Heparin
# Experimental: The anti-factor Xa (anti-fXa) assay was adapted from a commercial kit (Diapharma COATEST LMW Heparin) and modified to a 96-well format. A low molecular weight heparin, dalteparin, included in the kit was used to construct a standard curve according to the manufacture's instruction using pooled platelets poor plasma. All samples and standards were assayed in duplicate. The limit of quantitation was 0.05 U/mL and results below 0.05 U/mL were reported as below the limit of quantitation. The upper limit of measurement for the plate assay was 1.0 U/mL and samples with anti-factor Xa units higher than 1.0 U/mL were re-assayed after dilution. The coefficient of variation (CV) for both standards and clinical samples were 10%.
# [1] = system: Thrombosis on mouse mesenteric arteries; experiment: FeCl3 thrombosis on mouse mesenteric arteries; type: in vivo, mice; details: for Mean time to occlusion: P2Y12^+/− mice, 10 mg/kg
# Excerpt: Commonly used P2Y12 antagonists such as clopidogrel are prescribed at doses that block 40-50% of the P2Y12 receptors on platelets of treated patients. It has been shown that P2Y12^+/− mice which express ˜50% of the receptor on their platelets compared to wild type control (P2Y12^+/+), display an intermediate thrombosis phenotype between wild type and mice completely deficient in P2Y12 (P2Y12^−/−). (Andre, P., et al., J Clin Invest, 2003. 112(3):398-406). P2Y12 regulates platelet adhesion/activation, thrombus growth, and thrombus stability in injured arteries. The effect of Compound A was studied in a thrombosis model with P2Y12^+/− mice to effectively mimic the combination of dual dosing of factor Xa inhibitor and P2Y12 antagonist in humans.
# Thrombosis on mouse mesenteric arteries (shear rate 1000-1300 s^−1) was performed and recorded as previously described (Andre, P., et al., J Clin Invest, 2003. 112(3):398-406). Platelets were labeled in situ using rhodamine 6G (0.2 mg/mL) and administered through the tail vein 10 min before visualization of the arteries. Vessel-wall injury was triggered by a 1×1-mm filter paper saturated with a 10% FeCl3 solution. After 5 minutes, the filter paper was removed and mesenteric arteries rinsed with warmed saline (37° C.). Platelet vessel-wall interactions were recorded for 40 additional minutes or until full occlusion occurred and persisted for more than 40 seconds. C57Bl6J mice (wild type control or P2Y12^+/−) were orally gavaged with vehicle control, compound A (2, 4, 10 mg/kg) two hours prior to vascular injury. Thrombosis was analyzed in real time using Simple PCI software. The fluorescence intensity was recorded at a rate of 2 Hz for 40 minutes and plotted over time. Time to occlusion (cessation of blood flow) was analyzed. Plasma concentrations of Compound A were determined on blood collected 2 min post-occlusion or 42 min after start of vascular injury.
# [2] = Compound A added to blood samples from donors under aspirin therapy
# [3] = addition of Compound A to whole blood of aspirin treated donors prior to collagen activation
# [4] = wild type mice, 10 mg/kg oral gavage
# T1 sequence (P00743 234-492 limits assumed): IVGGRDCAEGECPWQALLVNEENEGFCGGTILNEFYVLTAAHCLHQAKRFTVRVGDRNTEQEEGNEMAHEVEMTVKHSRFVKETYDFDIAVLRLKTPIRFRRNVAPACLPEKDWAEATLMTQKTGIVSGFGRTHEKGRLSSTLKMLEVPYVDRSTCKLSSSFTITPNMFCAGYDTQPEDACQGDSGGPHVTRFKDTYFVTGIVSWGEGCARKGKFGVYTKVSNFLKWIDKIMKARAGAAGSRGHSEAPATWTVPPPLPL
# T1 sequence (P00743 41-180 partner limits assumed): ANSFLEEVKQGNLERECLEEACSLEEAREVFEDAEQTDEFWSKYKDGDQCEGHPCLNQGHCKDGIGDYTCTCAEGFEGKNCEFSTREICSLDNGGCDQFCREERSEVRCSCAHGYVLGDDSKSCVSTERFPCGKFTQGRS
smiles,measurement,setting,value
"COc1ccc(NC(=O)c2ccc(C(=N)N(C)C)cc2)c(C(=O)Nc2ccc(Cl)cn2)c1 [Compound A, [2-({4-[(dimethylamino)iminomethyl]phenyl}carbonylamino)-5-methoxyphenyl]-N-(5-chloro(2-pyridyl))carboxamide]",reduction in the levels of released interleukin 8,Interleukin 8; [2],44%
same,further reduction of interleukin 8,Interleukin 8; [3],18%
same,Mean Fluorescence,human whole blood; 10 nM Compound A + 2.4 μM eptifibatide,107.7
same,Mean Fluorescence,human whole blood; 25 nM Compound A + 2.4 μM eptifibatide,85.0
same,Mean Fluorescence,human whole blood; 50 nM Compound A + 2.4 μM eptifibatide,64.5
same,Mean Fluorescence,human whole blood; 75 nM Compound A + 2.4 μM eptifibatide,34.7
same,Mean Fluorescence,human whole blood; 100 nM Compound A + 2.4 μM eptifibatide,33.0
same,fold change of Interleukin 6 release,Interleukin 6; 50 nM Compound A,1.01
same,fold change of Interleukin 6 release,Interleukin 6; 200 nM Compound A,0.96
same,fold change of Interleukin 6 release,Interleukin 6; 500 nM Compound A,0.87
same,reduction in the levels of released interleukin 6,Interleukin 6; [2],25%
same,further reduction of interleukin 6,Interleukin 6; [3],16%
same,Template Bleed Times,"Rhesus Monkeys; 4.0 mg/kg, 1 hr, individual animals (Rhesus # 30675, 30973)",1.50 and 3.75
same,"Template Bleed Times, Mean of animals","Rhesus Monkeys; 4.0 mg/kg, 1 hr",2.63 min
same,Template Bleed Times,"Rhesus Monkeys; 4.0 mg/kg, 2 hr, individual animals (Rhesus # 30675, 30973)",1.50
same,"Template Bleed Times, Mean of animals","Rhesus Monkeys; 4.0 mg/kg, 2 hr",1.5 min
same,Template Bleed Times,"Rhesus Monkeys; 4.0 mg/kg, 3 hr, individual animals (Rhesus # 30675, 30973)",1.50
same,"Template Bleed Times, Mean of animals","Rhesus Monkeys; 4.0 mg/kg, 3 hr",1.5 min
same,Template Bleed Times,"Rhesus Monkeys; 4.0 mg/kg, 8 hr, individual animals (Rhesus # 30675, 30973)",2.00
same,"Template Bleed Times, Mean of animals","Rhesus Monkeys; 4.0 mg/kg, 8 hr",2 min
same,Template Bleed Times,"Rhesus Monkeys; 4.0 mg/kg, 24 hr, individual animals (Rhesus # 30675, 30973)",2.50
same,"Template Bleed Times, Mean of animals","Rhesus Monkeys; 4.0 mg/kg, 24 hr",2.5 min
same,"Template Bleed Times, Mean of all times",Rhesus Monkeys; 4.0 mg/kg,1.98*
same,"Template Bleed Times, Mean per animal","Rhesus Monkeys; 4.0 mg/kg, mean over time points of each animal (Rhesus # 30675, 30973)",1.80 and 2.25
same,"Template Bleed Times, Mean for time points 1-24 hr (post-Compound A dosing)",Rhesus Monkeys; 4.0 mg/kg,2.03**
same,Template Bleed Times,"Rhesus Monkeys; 7.5 mg/kg, 1 hr, individual animals (Rhesus # 25285, 27678)",3.00 and 2.00
same,"Template Bleed Times, Mean of animals","Rhesus Monkeys; 7.5 mg/kg, 1 hr",2.5 min
same,Template Bleed Times,"Rhesus Monkeys; 7.5 mg/kg, 2 hr, individual animals (Rhesus # 25285, 27678)",2.50 and 1.75
same,"Template Bleed Times, Mean of animals","Rhesus Monkeys; 7.5 mg/kg, 2 hr",2.13 min
same,Template Bleed Times,"Rhesus Monkeys; 7.5 mg/kg, 3 hr, individual animals (Rhesus # 25285, 27678)",2.50 and 2.00
same,"Template Bleed Times, Mean of animals","Rhesus Monkeys; 7.5 mg/kg, 3 hr",2.25 min
same,Template Bleed Times,"Rhesus Monkeys; 7.5 mg/kg, 8 hr, individual animals (Rhesus # 25285, 27678)",4.00 and 2.50
same,"Template Bleed Times, Mean of animals","Rhesus Monkeys; 7.5 mg/kg, 8 hr",3.25 min
same,Template Bleed Times,"Rhesus Monkeys; 7.5 mg/kg, 24 hr, individual animals (Rhesus # 25285, 27678)",2.50
same,"Template Bleed Times, Mean of animals","Rhesus Monkeys; 7.5 mg/kg, 24 hr",2.5 min
same,"Template Bleed Times, Mean of all times",Rhesus Monkeys; 7.5 mg/kg,2.50*
same,"Template Bleed Times, Mean per animal","Rhesus Monkeys; 7.5 mg/kg, mean over time points of each animal (Rhesus # 25285, 27678)",2.90 and 2.15
same,"Template Bleed Times, Mean for time points 1-24 hr (post-Compound A dosing)",Rhesus Monkeys; 7.5 mg/kg,2.53**
same,bleeding times,Rhesus Monkeys; supra-therapeutic doses (7 to 35 times greater than the 0.21 mg/kg to 0.57 mg/kg human therapeutic doses),did not extend of bleeding times
same,bleeding time in monkeys,"Rhesus Monkeys; therapeutic levels, plasma concentrations between 5 to 25 ng/mL",did not cause extension of bleeding
same,effect on anti-factor Xa levels,factor Xa,dose- and concentration-dependent effect
same,plasma concentration sufficient to prevent vascular occlusion,[1]; P2Y12^+/− animals,more than 76 ng/mL
same,time to occlusion,[1]; P2Y12^+/− mice with Compound A (756.7 seconds without),over 2100 seconds
same,Mean time to occlusion,[1]; Experiment 1,2143 s
same,Mean time to occlusion,[1]; Experiment 2,2399 s
same,Mean time to occlusion,[1]; Experiment 3,2305 s
same,circulating plasma concentration that prevented vascular occlusion,[1]; wild type animals,more than 1000 ng/mL
same,time for appearance of first thrombus,[1]; [4],significantly delayed
same,time to occlusion,[1]; [4],significantly delayed
same,antithrombotic effect,"[1]; wild type mice, 2 and 4 mg/kg oral gavage two hours prior to injury",non-effective
